One series concerns HDFa cells. In words: Extracellular acidification rate (ECAR), SeaHorse XF analyzer. The format is cell-based, human. The following applies: HDFa. The source says:
(SeaHorse Biosciences Inc, North Billerica, Mass.).
In this experiment, the OCR and extracellular acidification rate (ECAR) in normal cells lines were obtained in the presence and absence of CoQ10 to determine baseline values. It was observed that in its native nutrient environment, the basal OCR rates in normal cells lines are different, and are usually a function of the physiological roles of the cells in the body.
Table 127 below describes the ECAR values (mpH/min) in HDFa cells in the presence or absence of CoQ10 under normoxic and hypoxic conditions at 5.5 mM and 22 mM glucose.

Another series has as its system Caspase-3. The series can be described thus: Western blot of building block components, Caspase-3 expression. The format is cell-based. As to the method: (§1) Skmel-28 melanoma cells were cultured in DMEM/F12 supplemented with 5% Fetal Bovine Serum (FBS) and 1× final concentration of Antibiotics. The cells were grown to 85% confluency and treated with building block components for 3, 6, 12 and 24 hours. The cells were then pelleted and a Western blot analysis was performed.
(§2) In the Western Blot Analysis, the cells were pelleted in cold PBS, lysed, and the protein levels were quantified using a BCA protein assay. The whole cell lysate was loaded in a 4% loading 12% running Tris-HCl gel. The proteins were then transferred to a nitrocellulose paper then blocked with a 5% milk Tris-buffered solution for 1 hour. The proteins were then exposed to primary antibodies (Bcl-2 and Caspase-3) overnight. The nitrocellulose paper was then exposed to Pico Chemilluminescent for 5 min and the protein expression was recorded. After exposure, actin was quantified using the same method. Using ImageJ the levels of protein expression were quantified. A t-Test was used to analyze for statistical significance.
For orientation: Immunoblotting shows a protein as a band on a membrane.

A further series relates to Bcl-2. The series can be described thus: Western blot of building block components, Bcl-2 expression. The class given is cell-based. How it is done: as §1, §2
The subject of the next series is pancreatic cancer. As to conditions: 5 mg/kg (Group H), after 28 days.
The next series concerns Melanoma cells. The series can be described thus: Cell proliferation assay (cell count). The class given is cell-based. How it is done:
The first study examined the effect of combining 4-Hydroxy-Benzoate with Benzoquinone. Cells were incubated for 48 hours, after which a cell count was performed for the live cells. Each test group was compared to the control, and each combination groups were compared to Benzoquinone control. The compounds were statistically analyzed for the addition of Benzoquinone.
Additional studies were performed testing additional molar ratios. For the first test 4-Hydroxybenzoic were tested at concentrations of 500 nM, 1 μM, and 50 μM. These concentrations were tested in combination with 2,3-Dimethoxy-5-methyl-p-benzoquinone (Benzo). The concentration of Benzo tested were 25 μM, 50 μM, and […]. Melanoma cells were grown to 80% confluency and seeded in 6 well plates at a concentration of 40K cells per well. The cells were treated with CoQ10, 4-Hydroxybenzoate, Benzo, and a combination of 4-Hydroxybenzoate/Benzo.
A T-test was performed with p<0.05 as statistically significant.

[1] abbreviates: all concentrations and time points tested.
Where [2] appears, read: concentration not given, 24 hours.

Consider `COC1=C(OC)C(=O)C(C/C=C(\C)CC/C=C(\C)CC/C=C(\C)CC/C=C(\C)CC/C=C(\C)CC/C=C(\C)CC/C=C(\C)CC/C=C(\C)CC/C=C(\C)CCC=C(C)C)=C(C)C1=O` [compound 31510], for which the ECAR was 5 mpH/min in the series on HDFa cells (Hypoxia (5.5 mM) glucose, 50 μM); 5 mpH/min in the series on HDFa cells (Hypoxia (5.5 mM) glucose, 100 μM); 6 mpH/min in the series with HDFa cells (Hypoxia (22 mM) glucose, 50 μM); 8 mpH/min with HDFa cells (Hypoxia (22 mM) glucose, 100 μM); 6 mpH/min in the series on HDFa cells (Normoxia (5.5 mM) glucose, 50 μM); 6 mpH/min with HDFa cells (Normoxia (5.5 mM) glucose, 100 μM). Also, the ECAR with HDFa cells (Normoxia (22 mM) glucose, 50 μM) was 5 mpH/min; in the series on HDFa cells (Normoxia (22 mM) glucose, 100 μM), 5 mpH/min. Consider `CC(=O)SCCNC(=O)CCNC(=O)[C@H](O)C(C)(C)COP(=O)(O)OP(=O)(O)OC[C@H]1O[C@@H](n2cnc3c(N)ncnc32)[C@H](O)[C@@H]1OP(=O)(O)O` [Acetyl-CoA], for which, in the series with Caspase-3 (setting [1]), the Caspase-3 expression entry is listed as “no significant observed reduction in Bcl-2 or increase in Caspase-3 expression”.

For the compound `Cc1ncc(CO)c(CO)c1O` [Pyridoxine, pyridoxine], the Bcl-2 expression result in the series on Bcl-2 (setting [2]) is “significant reduction”. As for `N[C@H](Cc1ccccc1)C(=O)O` [D-Phenylalanine], the Bcl-2 expression entry in the series with Bcl-2 (10 μM, 6 hours) is recorded as “significant reduction”. As for `C[C@@](O)(CCO)CC(=O)O` [Mevalonic Acid, mevalonic acid], in the series with Caspase-3 (setting [1]), the Caspase-3 expression result is on record as “no significant reduction in Bcl-2 expression or an increase in Caspase-3 expression”. Consider `COc1cccc2c1C(=O)c1c(O)c3c(c(O)c1C2=O)C[C@@](O)(C(=O)CO)C[C@@H]3O[C@H]1C[C@H](N)[C@H](O)[C@H](C)O1` [Doxorubicin, reference compound], for which, in the series with pancreatic cancer, the survival entry is on record as “a significant number of the animals in Group H had died”. `NC(Cc1ccccc1)C(=O)O` (racemic) [DL-Phenylalanine]: in the series on Bcl-2 (setting [2]), the Bcl-2 expression entry is given as “statistically significant decrease”. In the series on Caspase-3 (concentration not given, 3 hours), the Caspase-3 expression result is recorded as “statistically significant increase”. On to `N[C@H](Cc1ccc(O)cc1)C(=O)O` [D-Tyrosine], for which the Caspase-3 expression entry with Caspase-3 (1 μM, 12 hour) is “increase”; in the series on Caspase-3 (1 μM, 24 hour) it was “increase”. As to `CC(=O)NCC(=O)O` [Acetylglycine], the Bcl-2 expression entry with Bcl-2 (10 μM, 24 hour) was “significant decrease”.

In the case of `O=C(O)c1ccc(O)cc1` [4-Hydroxybenzoate, 4-hydroxy-benzoate], in the series with Melanoma cells (48 hours), the “cell number (live cells) vs control” value is “significant decrease”. For the same compound, the cell proliferation entry in the series with Melanoma cells (HB 500 nM, 1 μM, 50 μM, p<0.05) is “significant decrease”. As for `COc1cc(C(O)C(=O)O)ccc1O` (stereo not shown) [VMA, 3-methoxy-4-hydroxymandelate], in the series with Bcl-2 (100 nM to 100 μM), the apoptotic effect result is reported as “no statistically significant apoptotic effect”. As to `COc1cc(C(=O)O)ccc1O` [Vanillic Acid, vanillic acid], the Bcl-2 expression entry in the series on Bcl-2 (500 nM, 24 hour) is “significantly reduce”.

For the origin of these results see patent publication US10351915B2 (Berg LLC, priority 2009, dated 2019).
